In the NIST ThermoML archive (doi:10.1016/j.jct.2018.06.007):
Numbers after ± are expanded uncertainties.

What was measured:
[1] = xn = mol fraction of the nth substance listed; conditions: 101 kPa, Liquid; for speed of sound: Frequency=2 MHz, Linear variable-path acoustic interferometer; for mass density: Pycnometric method
[2] = 101 kPa, Liquid; for speed of sound: Frequency=2 MHz, Linear variable-path acoustic interferometer; for mass density: Pycnometric method

CCN(CC)CCO [(diethylamino)ethanol] + CCCO
[1]
Conditions	mass density, 293.15 K [kg/m3]	mass density, 303.15 K [kg/m3]	mass density, 313.15 K [kg/m3]	speed of sound, 293.15 K [m/s]	speed of sound, 303.15 K [m/s]	speed of sound, 313.15 K [m/s]
x1 = 0.0937	817.5 ± 4	809.54 ± 4	801.82 ± 4	1247.7 ± 1.8	1213.2 ± 1.7	1178.9 ± 1.7
x1 = 0.1994	830.99 ± 4	822.96 ± 4	815.1 ± 4	1269 ± 1.8	1234.4 ± 1.8	1199.7 ± 1.7
x1 = 0.3005	842.11 ± 4	833.85 ± 4	825.77 ± 4	1287.6 ± 1.8	1252.7 ± 1.8	1217.3 ± 1.7
x1 = 0.4048	851.86 ± 4	843.48 ± 4	835.1 ± 4	1305 ± 1.8	1269.5 ± 1.8	1233.2 ± 1.7
x1 = 0.5072	859.98 ± 4	851.48 ± 4	842.85 ± 4	1320.1 ± 1.8	1284.1 ± 1.8	1247 ± 1.8
x1 = 0.61	866.74 ± 4	858.08 ± 4	849.33 ± 4	1333.3 ± 1.8	1296.9 ± 1.8	1259.2 ± 1.8
x1 = 0.7093	872.27 ± 4	863.47 ± 4	854.7 ± 4	1344 ± 1.9	1307.3 ± 1.8	1269.4 ± 1.8
x1 = 0.801	876.7 ± 4	867.78 ± 4	858.95 ± 4	1352.2 ± 1.9	1315.3 ± 1.8	1277 ± 1.8
x1 = 0.9047	881.06 ± 4	871.91 ± 4	862.91 ± 4	1360.1 ± 1.9	1322.3 ± 1.8	1282.5 ± 1.8
x1 = 1	884.37 ± 4	874.93 ± 4	865.62 ± 4	1366.5 ± 1.9	1327.3 ± 1.8	1285 ± 1.8

CCCCO [butan-1-ol]
[2]
Conditions	mass density [kg/m3]	speed of sound [m/s]
293.15 K	809.53 ± 4	1261.9 ± 1.8
303.15 K	802 ± 4	1224.7 ± 1.7
313.15 K	794.7 ± 4	1188.8 ± 1.7

CCN(CC)CCO [(diethylamino)ethanol]
[2]
Conditions	mass density [kg/m3]	speed of sound [m/s]
293.15 K	884.37 ± 4	1366.5 ± 1.9
303.15 K	874.93 ± 4	1327.3 ± 1.8
313.15 K	865.62 ± 4	1285 ± 1.8
